# Tests used:
# [1] = system: Colletotrichum lagenarium; assay type: cell-based
# [2] = system: Rhynchosporium secalis; assay type: cell-based
# [3] = system: Alternaria solani; assay type: cell-based
# [4] = system: Phakopsora pachyrhizi; experiment: Glasshouse trial: protective control of soy bean rust on soy beans; assay type: in vivo; details: soy bean seedlings sprayed with 1000 ppm, inoculated 1 day later, assessed after fourteen days; untreated plants 90% infected
# Method: The spray solutions were prepared in several steps: The stock solution were prepared: a mixture of acetone and/or dimethylsulfoxide and the wetting agent/emulsifier Wettol, which is based on ethoxylated alkylphenoles, in a relation (volume) solvent-emulsifier of 99 to 1 was added to 25 mg of the compound to give a total of 10 ml. Water was then added to total volume of 100 ml. This stock solution was diluted with the described solvent-emulsifier-water mixture to the given concentration. Leaves of pot-grown soy bean seedlings were sprayed to run-off with an aqueous suspension, containing the concentration of active ingredient or their mixture as described below. The plants were allowed to air-dry. […] Then the plants were inoculated with spores of Phakopsora pachyrhizi. […] The extent of fungal attack on the leaves was visually assessed as % diseased leaf area.
# [5] = system: Septoria tritici; assay type: cell-based
# [6] = system: Colletotrichum truncatum; assay type: cell-based
# [7] = system: Cochliobolus miyabeanus; experiment: Microtiter test, brown spot on rice (Cochmi); assay type: cell-based; details: vs compound-free control (100%), 405 nm, 7 days after inoculation, concentration not given
# [8] = system: Fusarium poae; assay type: cell-based
# [9] = system: Corynespora cassiicola; assay type: cell-based
# [10] = system: Cercospora sojina; assay type: cell-based
# [11] = system: Rhizoctonia solani; assay type: cell-based
# [12] = system: Pyrenophora teres; assay type: cell-based
# [13] = system: Phytophthora infestans; assay type: cell-based; details: Phytin; pea juice-based or DDC medium; vs compound-free control (100%); 405 nm, 7 days after inoculation; concentration not given
# [14] = system: Botryis cinerea; assay type: cell-based; details: Botrci; vs compound-free control (100%); 405 nm, 7 days after inoculation; concentration not given
# [15] = system: Fusarium culmorum; assay type: cell-based
# [16] = system: Fusarium oxysporum; assay type: cell-based
# [17] = system: Septoria glycines; assay type: cell-based
# [18] = system: Pyriculana oryzae; assay type: cell-based; details: Pyrior; vs compound-free control (100%); 405 nm, 7 days after inoculation; concentration not given
smiles,measurement,setting,value
"N#CC1=C(C#N)SC(C#N)=C(C#N)S1 [compound I.A, 2,3,5,6-tetracyano-[1,4]dithiine]",relative growth in % of the pathogen,[1],0%
same,relative growth in % of the pathogen,[2],0%
same,relative growth in % of the pathogen,[3],0%
same,infection (% diseased leaf area),[4],4%
same,relative growth in % of the pathogen,[5],0%
same,relative growth in % of the pathogen,[6],0%
same,relative growth in % of the pathogen,[7],0%
same,relative growth in % of the pathogen,[8],0%
same,relative growth in % of the pathogen,[9],1%
same,relative growth in % of the pathogen,[10],0%
same,relative growth in % of the pathogen,[11],0%
same,relative growth in % of the pathogen,[12],0%
same,relative growth in % of the pathogen,[13],0%
same,relative growth in % of the pathogen,[14],1%
same,relative growth in % of the pathogen,[15],0%
same,relative growth in % of the pathogen,[16],0%
same,relative growth in % of the pathogen,[17],0%
same,relative growth in % of the pathogen,[18],0%
